{"source": "patent US20220145406A1", "about": "“BIOMARKERS, AND USES IN TREATMENT OF VIRAL INFECTIONS, INFLAMMATIONS, OR CANCER” (ABIVAX, priority 2018, published 2022)", "key": {"[1]": {"system": "HIV RNA", "assay": "RNA CaptureSeq of HIV RNA splicing in infected PBMCs", "assay_type": "cell-based, HIV-1", "experimental": "(§1) Total RNA was extracted from infected and uninfected PBMC samples using TRIzol reagent (Invitrogen) following the manufacturer's protocol. The RNA concentrations and purity were determined using the RNA 6000 Bioanalyzer kit (Agilent). For cDNA synthesis, 1 μg of total RNA was treated with DNase I (Invitrogen) and then utilized as a template for reverse transcription using the Verso cDNA kit with a blend of random hexamers and anchored oligo-dT (Thermo Scientific), according to the manufacturer's instructions. After KAPA Hyper Prep (ROCHE) library preparation from 1 μg total RNA, we proceeded with SeqCap EZ capture (ROCHE) following the manufacturer's recommendations. Hybrid selection was performed with a custom SeqCap EZ Choice Library (Roche NimbleGen) containing the following regions; chromosome 8 (9,760,617 to 9,761,780 and 65,285,285 to 65,296,944). chromosome 20 (61,797,549 to 61,812,855), chromosome 1 (1,102,000 to 1,106,000), chromosome 13 (92,000,074 to 92,006,833), chromosome 15 (22,512,831 to […]) and the genome of the HIV Ada8 strain. This library was designed through the NimbleDesign portal (v1.2.R1) using genome build hg19 NCBI Build 37.1/GRCh37. Sequencing was performed on a NextSeq 500 (Illumina) with 18 samples on a HighOutput Cartridge (2×400 million reads of 75 bases each).\nTo profile viral transcriptional events modulated by ABX464 and thereby assess the full depth of the HIV transcriptome, we employed a recently described targeted RNA capture and sequencing strategy (RNA CaptureSeq). This strategy involves the construction of tiling arrays across the HIV genome, against which cDNAs are hybridized, eluted and sequenced. RNA CaptureSeq is similar to previous in-solution capture methods and exome sequencing approaches, but when combined with deep-sequencing technology, provides saturating coverage and permits the robust assembly of rare and unannotated HIV transcripts.\nPBMCs from 6 HIV-negative donors were infected with the YU-2 strain, followed by treatment with ABX464. […] After cDNA capture from infected cells that were untreated or treated with ABX464, libraries were prepared and sequenced using an Illumina sequencing facility. To highlight potential new splicing events induced by ABX464, we used a custom bioinformatics pipeline with the main step involving the assembly of putative transcripts from targeted RNA sequencing reads to construct contigs (Illumina paired-end 2×75 bp) (FIGS. 6 A and B). The putative transcripts (contigs) were then mapped to the HIV genome. The HIV profiling datasets used in our analysis yielded high sequence coverage (2 to 30 million reads for the 9 kb genome), allowing deep quantification of HIV splice variants.\nTo test whether enhanced splicing by ABX464 generates new viral RNA variants, the splicing events were filtered and analyzed. After mapping the contigs to the genome of the YU-2 strain, the latter was used as an anchor for additional clustering and assembly of new HIV transcripts. The partial gene structures generated by the spliced alignment were merged whenever they shared consecutive splicing sites spanning an intronic viral sequence. The superstructures so formed correspond to all possible HIV gene structures for which each complete exon is supported by at least one of the alignments. At the HIV transcript level, this led to the formation of superassemblies, where each superassembly is a merge of initial contigs matching a predicted superstructure. […] FIG. 1C and Table III present the distribution of the number of contigs that were merged to form one superassembly for each donor. […]"}, "[2]": {"system": "miR-124 (miR-124-1, miR-124-2, miR-124-3 loci)", "assay": "RNA CaptureSeq read counts at the miR-124 loci in PBMCs", "assay_type": "cell-based, human", "conditions": "PBMCs treated with ABX464", "experimental": "as §1\n(§2) miR-124 is encoded from three independent genes, miR-124-1, miR-124-2, and miR-124-3, located on human chromosomes 8 and 20 (FIG. 4A). To determine which of these genes is induced by ABX464, we employed targeted RNA CaptureSeq to assess the full depth of the transcriptome. […] The total number of reads for untreated as well as ABX464 treated samples varied between 2 and 30 million in infected and uninfected PBMCs (Table V). The number of reads from the three loci encoding miR-124 in the treated samples were 4- to 12-fold higher than in the untreated samples (FIG. 4B, Table V), confirming that ABX464 led to a large increase in miR-124. […]"}, "[3]": {"system": "miR-429", "assay": "RNA CaptureSeq read counts at the control locus miR-429", "assay_type": "cell-based, human", "conditions": "PBMCs; control locus outside the miR-124 region", "experimental": "Total RNA was extracted from infected and uninfected PBMC samples using TRIzol reagent (Invitrogen) following the manufacturer's protocol. The RNA concentrations and purity were determined using the RNA 6000 Bioanalyzer kit (Agilent). For cDNA synthesis, 1 μg of total RNA was treated with DNase I (Invitrogen) and then utilized as a template for reverse transcription using the Verso cDNA kit with a blend of random hexamers and anchored oligo-dT (Thermo Scientific), according to the manufacturer's instructions. After KAPA Hyper Prep (ROCHE) library preparation from 1 μg total RNA, we proceeded with SeqCap EZ capture (ROCHE) following the manufacturer's recommendations. […] Sequencing was performed on a NextSeq 500 (Illumina) with 18 samples on a HighOutput Cartridge (2×400 million reads of 75 bases each).\nas §2, with “4A).” for “4A). To determine which of these genes is induced by ABX464, we employed targeted RNA CaptureSeq to assess the full depth of the transcriptome.”"}, "[4]": {"conditions": "PBMCs infected with YU2, treated with ABX464, one value per donor library"}}, "note": "Values joined by “and” are separate entries in the source; they are usually repeats but may differ in a detail not shown here. Equal values may be shown once."}
{"smiles": "FC(F)(F)Oc1ccc(Nc2ccc3cccc(Cl)c3n2)cc1", "note": "[ABX464, 8-chloro-N-(4-(trifluoromethoxy)phenyl)quinolin-2-amine]", "values": [{"measurement": "assembled contigs corresponding to spliced RNAs", "setting": "[1]; ABX464-treated PBMC samples infected with YU-2", "value": 90, "unit": "%"}, {"measurement": "contig counts spliced RNA transcripts Gag", "setting": "[1]; [4]", "value": "18 and 42 and 25 and 13 and 19 and 26"}, {"measurement": "contig counts spliced RNA transcripts Pol", "setting": "[1]; [4]", "value": "67 and 61 and 17 and 14 and 12 and 35"}, {"measurement": "contig counts spliced RNA transcripts Vif", "setting": "[1]; [4]", "value": "32 and 34 and 15 and 16 and 12 and 25"}, {"measurement": "contig counts spliced RNA transcripts env", "setting": "[1]; [4]", "value": "59 and 42 (2×) and 37 and 13 and 35"}, {"measurement": "contig counts spliced RNA transcripts rev", "setting": "[1]; [4]", "value": "23 and 21 and 17 and 9 and 12 and 29"}, {"measurement": "contig counts spliced RNA transcripts tat", "setting": "[1]; [4]", "value": "16 and 18 (2×) and 19 and 15 and 24"}, {"measurement": "contig counts spliced RNA transcripts vpr", "setting": "[1]; [4]", "value": "14 (2×) and 9 and 12 (2×) and 11"}, {"measurement": "contig counts spliced RNA transcripts vpu", "setting": "[1]; [4]", "value": "7 and 5 and 13 and 11 (2×) and 17"}, {"measurement": "contig counts Complete_mRNA", "setting": "[1]; PBMCs infected with YU2, treated with ABX464, one value per donor library (D1, D4-D8)", "value": "11 and 13 and 6 (2×) and 32 and 15"}, {"measurement": "read counts mir124.2", "setting": "[2]; one value per donor library", "value": "704 and 4 and 4222 and 362 and 2326 and 5452"}, {"measurement": "read counts mir124.3", "setting": "[2]; one value per donor library", "value": "6439 and 701 and 21941 and 2542 and 14460 and 7772"}, {"measurement": "read counts mir124.1", "setting": "[2]; one value per donor library (D1, D4-D8)", "value": "4014 and 7114 and 4748 and 324 and 2486 and 1088"}, {"measurement": "expression of miR-429", "setting": "[3]", "value": "no effect"}]}
